Measurements from patent US11980633B2, “Method for treating cancer using a combination of DNA-damaging agents and DNA-PK inhibitors” (Vertex Pharmaceuticals Incorporated, priority 2016, dated 2024).

What was measured:
Type in all cases: cell-based
[1] = tested on: primary human NSCLC tumors (dissociated cells); assay: TCA: Compound B-1 with radiation (1-16 Gy), primary NSCLC tumors; parameters: Average Bliss score: scale not given here
Method: (§1) In both studies, cell viability was assessed after 6 days in culture. Statistical analysis of the combination matrix was performed to assess whether synergy, additivity, or antagonism of the combination treatments were observed.
(§2) Materials: Primary patient samples (See Tables 16 and 17, below) were excised from mice when they reached 500 mg to 1000 mg in size and processed immediately, or after overnight shipment. Tumors were serially passaged by subcutaneous implantation of 50 mg to 150 mg fragments into the flanks of immunocompromised (nude) mice. Tumors were used within the first 5 or 7 passages.
(§3) Tumor Chemosensitivity Assay (TCA): Primary tumor samples were grown and serially passaged in immunocompromised mice. Tumors were mechanically dissociated into small fragments (1 mm to 2 mm) with scalpels in phosphate buffered saline (PBS or RPMI) and centrifuged at 200×g for 5 minutes at room temperature in 50 mL centrifuge tubes. Samples were resuspended in 10 mL of cell dissociation reagent and enzymatically digested with mechanical agitation for 1 to 3 hours at 37° C., 5% CO2 to a single cell suspension. Ten mL of complete RPMI-1640 media was added to the cell mixture and pipetted up and down 4 to 5 times. The mixture was then passed through a 70 μm or 100 μm mesh strainer to remove undigested tumor. The filtrate was then centrifuged 200×g for 5 minutes at room temperature and resuspended in 20 mL complete RPMI-1640. This cell suspension was slowly layered onto 20 mL of room temperature Histopaque and centrifuged at 400×g for 15 minutes at room temperature without a brake. The interface was transferred to a new 50 mL centrifuge tube and 15 mL of complete RPMI-1640 was added. This suspension was centrifuged at 200×g at room temperature, and the resulting pellet was resuspended in 10 mL of complete PC-1 media, except for pancreatic tumors in which case Pancreatic Medium was used. Cells were diluted in Trypan blue, and viable cells that excluded the dye were counted. Only the larger, tumor cells were included in the cell count. Cells were diluted in complete PC-1 or Pancreatic media, as appropriate for the cells, and were plated at 15,000 to 20,000 cells per well in 100-135 μL in ultra-low attachment U-bottom plates.
(§4) Compound Addition: For these studies, a 10 mM stock of the DNA-PK inhibitor (Compound B-1 or Compound B-2) was made in DMSO and used to add to cells from most tumors with HP D300 Digital Dispenser (Tecan US, Morrisville, NC, USA), or diluted into the appropriate media (PC-1 or pancreatic media) as a 5-10× stock and added to cells (OVX001 and ENX001, 005). PC-1, pancreatic media, and chemotherapeutics were also added so that final well volume was 150 μL. Doxorubicin was made as DMSO stock of 1 or 10 mM and added to cells for most tumors with HP D300 Digital Dispenser, or diluted into PC-1 as 5-10× stock and added to cells (OVX001 and ENX001, 005). Cisplatin (cis-diammine platinum(II), dichloride) was prepared fresh to 10 mM in warm (60° C.) distilled water and diluted in PC-1 as a 5-10× stock. […] Different starting concentrations, dose ranges, and number of doses were used for each experiment based on the response data available at the time.
In radiation experiments, a range of 1-16 Gy was administered using a cesium-137 source (GammaCell 40 Exactor, MDS Nordion, Ontario, Canada). These experiments were designed as a 6×5 matrix in triplicate. Each point of a 4-point concentration range of 0.15, 0.73, 1.5 and 2.2 μM Compound B-1 plus a ‘no treatment’ control in triplicate were added to 6 individual plates. The matrix was then assembled by exposure of each plate to 0, 1, 2, 4, 8, or 16 Gy of radiation.
Cells were cultured at 37° C., 5% CO2, 95% air and 100% relative humidity.
Viability Determination: Six days after compound addition, 75 μL of CellTiterGlo (prepared according to manufacturer's protocol) was added to each well of the compound titration plates. […]

[2] = tested on: primary human tumors (NSCLC, SCLC); assay: TCA: Compound B-1 with etoposide, primary lung tumors
Method: as §1, §2, §3, §4
(§5) For bleomycin experiments, combinations with Compound B-1 at all concentrations were run in triplicate. A 6×3 matrix was designed on one plate, consisting of a 2-point concentration range of 0.73 μM and 2.2 μM Compound B-1 plus no treatment control, in 3 columns each of 6 wells. Bleomycin (plus ‘no treatment’ control) was added to 9 wells in rows of this plate. Similar 6×3 matrices were set up for additional agents with different starting concentrations for compound dilutions. For cisplatin experiments the starting concentration was 30 μM which was diluted 1:3. […] For doxorubicin hydrochloride experiments the starting concentration was 5 μM doxorubicin which was diluted 1:3. For gemcitabine experiments the starting concentration was 5 μM gemcitabine which was diluted 1:3. […]

[3] = tested on: primary human pancreatic tumors; assay: TCA: Compound B-1 with gemcitabine, primary pancreatic tumors
Method: as §1, §2, §3, §4, §5

[4] = tested on: primary human tumors (NSCLC, SCLC, pancreatic, HCC, gastric, esophageal); assay: TCA assays overall: all combination treatments with Compound B-1
Method: as §1, §2
as §3, with “Cells were diluted in complete PC-1 or Pancreatic media, as appropriate for the cells, and were plated at 15,000 to 20,000 cells per well in 100-135 μL in ultra-low attachment U-bottom plates.” left out

Structure (SMILES): CNC(=O)c1ccnc2c([C@H](C)CNc3cc(-c4cnc(C)nc4)ncn3)cccc12 [Compound B-1]
- tumors that showed synergy or additivity ([1]; 9 NSCLC tumors): 100%
- tumors that showed strong synergy ([1]; three of 9 NSCLC tumors): 33%
- Average Bliss score ([1]; tumor OD26131, Lung (NSCLC)): 12
- Synergy/Additivity/Antagonism ([1]; tumor OD26131, Lung (NSCLC)): Strongly Synergistic (greater than 10 are considered strongly synergistic)
- Average Bliss score ([1]; tumor OD26749, Lung (NSCLC)): 7
- Synergy/Additivity/Antagonism ([1]; tumor OD26749, Lung (NSCLC)): Synergistic (greater than 5 are considered synergistic)
- Average Bliss score ([1]; tumor OD29498, Lung (NSCLC)): 2
- Synergy/Additivity/Antagonism ([1]; tumor OD29498, Lung (NSCLC)): Additive (Values between 5 and −5 are considered additive)
- Average Bliss score ([1]; tumor OD33117, Lung (NSCLC)): 9
- Synergy/Additivity/Antagonism ([1]; tumor OD33117, Lung (NSCLC)): Synergistic (greater than 5 are considered synergistic)
- Average Bliss score ([1]; tumor OD33966, Lung (NSCLC)): 8
- Synergy/Additivity/Antagonism ([1]; tumor OD33966, Lung (NSCLC)): Synergistic (greater than 5 are considered synergistic)
- Average Bliss score ([1]; tumor OD35982, Lung (NSCLC)): 5
- Synergy/Additivity/Antagonism ([1]; tumor OD35982, Lung (NSCLC)): Additive (Values between 5 and −5 are considered additive)
- Average Bliss score ([1]; tumor OD36088, Lung (NSCLC)): 14
- Synergy/Additivity/Antagonism ([1]; tumor OD36088, Lung (NSCLC)): Strongly Synergistic (greater than 10 are considered strongly synergistic)
- Average Bliss score ([1]; tumor TS110310, Lung (NSCLC)): 16
- Synergy/Additivity/Antagonism ([1]; tumor TS110310, Lung (NSCLC)): Strongly Synergistic (greater than 10 are considered strongly synergistic)
- Average Bliss score ([1]; tumor YAS111611, Lung (NSCLC)): 1
- Synergy/Additivity/Antagonism ([1]; tumor YAS111611, Lung (NSCLC)): Additive (Values between 5 and −5 are considered additive)
- tumors that showed strong synergy [2]: 100%
- Average Bliss score ([2]; tumor LUX013, Lung (SCLC)): 15
- Synergy/Additivity/Antagonism ([2]; tumor LUX013, Lung (SCLC)): Strongly Synergistic (greater than 10 are considered strongly synergistic)
- Average Bliss score ([2]; tumor LUX031, Lung (SCLC)): 16
- Synergy/Additivity/Antagonism ([2]; tumor LUX031, Lung (SCLC)): Strongly Synergistic (greater than 10 are considered strongly synergistic)
- Average Bliss score ([2]; tumor OD26749, Lung (NSCLC)): 19
- Synergy/Additivity/Antagonism ([2]; tumor OD26749, Lung (NSCLC)): Strongly Synergistic (greater than 10 are considered strongly synergistic)
- Average Bliss score ([2]; tumor OD29498, Lung (NSCLC)): 13
- Synergy/Additivity/Antagonism ([2]; tumor OD29498, Lung (NSCLC)): Strongly Synergistic (greater than 10 are considered strongly synergistic)
- tumors that showed additivity ([3]; 2 of 4 pancreatic tumors): 50%
- tumors that showed antagonism ([3]; 2 of 4 pancreatic tumors): 50%
- Average Bliss score ([3]; tumor P110325, Pancreatic): −9
- Synergy/Additivity/Antagonism ([3]; tumor P110325, Pancreatic): Antagonistic (less than −5 are considered antagonistic)
- Average Bliss score ([3]; tumor P110413, Pancreatic): −1
- Synergy/Additivity/Antagonism ([3]; tumor P110413, Pancreatic): Additive (Values between 5 and −5 are considered additive)
- Average Bliss score ([3]; tumor P110504, Pancreatic): −6
- Synergy/Additivity/Antagonism ([3]; tumor P110504, Pancreatic): Antagonistic (less than −5 are considered antagonistic)
- Average Bliss score ([3]; tumor P110603, Pancreatic): −2
- Synergy/Additivity/Antagonism ([3]; tumor P110603, Pancreatic): Additive (Values between 5 and −5 are considered additive)
- tumors that showed antagonism ([4]; all TCA combinations with Compound B-1 (4/63)): 6%
- combination treatments that showed additive effects ([4]; all TCA combinations with Compound B-1 (29/63)): 46%
- combination treatments that demonstrated synergy or strong synergy ([4]; all TCA combinations with Compound B-1 (29/68 as printed)): 46%
